Experimental data as given in ChEMBL document CHEMBL1201862, “PubChem BioAssay data set” (2004).
Activity calls are given as the source filed them.

Key:
[1] = NIH3T3 cell viability loss – ATP luminescence, mouse fibroblasts, counter-screen, dose response (AID 2010); assay type: functional, cell-based;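 further: cells exposed to compound for about 90 hours before reading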
INS1 = test: INS-1E survival protection against cytokine death – cell-based, luminescence, retest, dose response (AID 449756); assay type: functional; settings: Rattus norvegicus;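 further: cell death triggered by IL-1 beta plus TNF-alpha plus IFN-gamma mixture; protective hits raise ATP signal compared with cytokine alone wells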
[2] = Trypanosoma cruzi growth suppression in host cells – NIH3T3 host cells, beta-gal luminescence, confirmation (AID 2044); assay type: functional, cell-based;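 further: intracellular parasites grown in NIH/3T3 mouse fibroblasts as host cells; luminescent beta-galactosidase reporter signal from transgenic T. cruzi replicating inside host cells; inhibitors lower the luminescence signal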
Streptococcus = test: GAS UMAA2166 growth inhibition – luminescence, BacTiterGlo, counter-screen for streptokinase expression inhibitor project, dose response (AID 1915); assay type: functional, organism-based;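 further: potency for reduction of bacterial viability or growth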
Cytochrome P450 3A4 = Cytochrome P450 3A4 (Homo sapiens, UniProt P08684);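 further: CYP3A4 tested as one member of a cytochrome P450 panel screen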
Chain of Cytochrome P450 3A4 (P08684 whole entry): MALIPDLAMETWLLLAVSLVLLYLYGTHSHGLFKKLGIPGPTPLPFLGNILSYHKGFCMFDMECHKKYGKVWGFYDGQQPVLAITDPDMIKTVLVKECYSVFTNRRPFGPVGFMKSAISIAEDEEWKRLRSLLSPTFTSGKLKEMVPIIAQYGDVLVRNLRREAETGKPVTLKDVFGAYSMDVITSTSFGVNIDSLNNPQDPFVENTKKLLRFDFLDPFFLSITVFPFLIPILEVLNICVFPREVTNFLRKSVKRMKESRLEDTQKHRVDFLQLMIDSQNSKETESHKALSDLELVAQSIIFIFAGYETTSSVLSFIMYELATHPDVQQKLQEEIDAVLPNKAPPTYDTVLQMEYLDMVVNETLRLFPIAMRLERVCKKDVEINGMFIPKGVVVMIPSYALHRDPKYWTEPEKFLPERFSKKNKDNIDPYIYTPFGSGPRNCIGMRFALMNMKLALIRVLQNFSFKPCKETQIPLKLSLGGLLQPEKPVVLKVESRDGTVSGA

Streptokinase A = target: T1, Streptokinase A (Streptococcus pyogenes serotype M1, UniProt P10520); test: viability-normalized secreted streptokinase activity reduction – plasminogen activation absorbance, OD405, dose response (AID 1914); assay type: functional, Streptococcus pyogenes M1 GAS;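 further: secreted streptokinase activity via plasminogen activation per viability signal from cell pellet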
T1 sequence (P10520 whole entry): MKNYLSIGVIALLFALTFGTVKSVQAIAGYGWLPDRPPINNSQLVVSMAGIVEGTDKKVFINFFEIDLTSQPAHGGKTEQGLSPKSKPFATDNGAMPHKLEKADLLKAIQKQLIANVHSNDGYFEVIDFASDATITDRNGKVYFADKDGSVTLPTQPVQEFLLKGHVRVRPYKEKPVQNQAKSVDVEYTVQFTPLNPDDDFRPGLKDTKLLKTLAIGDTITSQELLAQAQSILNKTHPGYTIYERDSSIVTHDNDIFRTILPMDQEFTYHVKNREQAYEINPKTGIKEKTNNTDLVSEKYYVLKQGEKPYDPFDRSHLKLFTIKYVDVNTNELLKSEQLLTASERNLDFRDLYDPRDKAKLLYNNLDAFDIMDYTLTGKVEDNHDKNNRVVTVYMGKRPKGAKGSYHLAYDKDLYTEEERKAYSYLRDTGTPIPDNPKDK

[3] = test system: Streptococcus sp. 'group A'; test: Streptococcus pyogenes SK(-)GAS viability under kanamycin – luminescence, BacTiterGlo, confirmation, counter-screen for streptokinase expression inhibitor project, dose response (AID 1900); assay type: functional, organism-based
Cytochrome P450 2C19 = Cytochrome P450 2C19 (Homo sapiens, UniProt P33261); test: Cytochrome panel assay with activity outcomes. Panel member name: p450-cyp2c19 Compounds with AC50 equal or less than 10 uM are considered active; assay type: functional; settings: read-out: AC50
Chain of Cytochrome P450 2C19 (P33261 whole entry): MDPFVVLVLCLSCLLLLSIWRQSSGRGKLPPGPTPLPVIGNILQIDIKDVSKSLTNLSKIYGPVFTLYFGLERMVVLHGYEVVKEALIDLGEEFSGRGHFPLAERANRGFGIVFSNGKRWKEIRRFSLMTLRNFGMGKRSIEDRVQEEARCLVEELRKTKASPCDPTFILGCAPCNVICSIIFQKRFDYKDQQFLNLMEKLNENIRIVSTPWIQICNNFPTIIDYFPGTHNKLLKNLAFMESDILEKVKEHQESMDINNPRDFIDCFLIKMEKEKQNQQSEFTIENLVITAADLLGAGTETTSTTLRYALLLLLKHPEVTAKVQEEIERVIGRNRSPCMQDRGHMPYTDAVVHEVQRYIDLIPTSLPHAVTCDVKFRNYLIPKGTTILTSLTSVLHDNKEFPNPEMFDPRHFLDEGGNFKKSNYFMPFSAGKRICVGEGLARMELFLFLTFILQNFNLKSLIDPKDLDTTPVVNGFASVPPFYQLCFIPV

Cytochrome P450 2C9 = Cytochrome P450 2C9 (Homo sapiens, UniProt P11712)
Chain of Cytochrome P450 2C9 (P11712 whole entry): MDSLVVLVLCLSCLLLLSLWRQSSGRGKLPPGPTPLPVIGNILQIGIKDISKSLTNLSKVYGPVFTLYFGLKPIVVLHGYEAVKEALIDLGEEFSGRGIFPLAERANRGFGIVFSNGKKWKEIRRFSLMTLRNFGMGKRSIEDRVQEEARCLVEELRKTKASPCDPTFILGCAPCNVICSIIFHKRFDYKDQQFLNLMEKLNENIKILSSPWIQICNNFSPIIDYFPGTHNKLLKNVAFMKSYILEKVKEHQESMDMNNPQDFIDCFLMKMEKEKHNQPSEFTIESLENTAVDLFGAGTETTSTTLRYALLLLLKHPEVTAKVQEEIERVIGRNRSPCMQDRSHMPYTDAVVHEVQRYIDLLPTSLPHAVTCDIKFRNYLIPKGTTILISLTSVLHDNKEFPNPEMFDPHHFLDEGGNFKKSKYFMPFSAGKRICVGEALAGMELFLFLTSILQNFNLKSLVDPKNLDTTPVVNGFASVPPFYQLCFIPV

[4] = fluconazole-exposed Candida albicans growth modulators – fluorescence, retest, confirmation (AID 2467); assay type: functional, cell-based
[5] = NIH-3T3 fibroblast cytotoxicity, dose response, cytotoxicity control, cell-based, fluorescence, Alamar Blue, secondary assay (AID 2327); assay type: functional;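 further: NIH-3T3 mouse fibroblasts cultured with fluconazole at 8 µg/mL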
[6] = P. falciparum Dd2 growth inhibitors, dose response, SYBR Green, cherry-picked samples (AID 1159567); assay type: functional, cell-based
[7] = target: T2, Heat shock factor protein 1 (Mus musculus, UniProt P38532); test: decrease of HSF1-responsive luciferase luminescence – cell-based, NIH3T3, dose retest, confirmation (AID 2382); assay type: functional;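 further: NIH3T3 fibroblasts with HSF1-driven luciferase reporter stressed by proteasome inhibitor MG132; luminescence from HSF1-driven luciferase expression after 8 hours of MG132 stress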
T2 sequence (P38532 whole entry): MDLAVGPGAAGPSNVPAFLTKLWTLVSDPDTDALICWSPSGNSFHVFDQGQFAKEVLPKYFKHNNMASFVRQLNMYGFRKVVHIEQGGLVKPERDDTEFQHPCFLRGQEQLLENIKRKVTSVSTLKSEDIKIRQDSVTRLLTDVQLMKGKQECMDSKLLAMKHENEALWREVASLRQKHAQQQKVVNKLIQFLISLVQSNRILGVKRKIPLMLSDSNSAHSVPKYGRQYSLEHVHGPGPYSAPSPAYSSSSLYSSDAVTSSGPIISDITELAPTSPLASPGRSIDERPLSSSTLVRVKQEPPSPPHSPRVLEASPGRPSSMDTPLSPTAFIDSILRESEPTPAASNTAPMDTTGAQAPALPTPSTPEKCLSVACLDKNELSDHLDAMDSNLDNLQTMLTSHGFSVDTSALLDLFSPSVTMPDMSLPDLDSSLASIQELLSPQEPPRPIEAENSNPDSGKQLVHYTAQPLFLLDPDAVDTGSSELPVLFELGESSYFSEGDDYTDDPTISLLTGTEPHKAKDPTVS

[8] = Luminescence Cell-Based Dose Response HTS to Identify Inhibitors of 5'UTR Stem-Loop Driven Prion Protein mRNA Translation in H4 Neuroglioblastoma Cells. [Related pubchem assays: 1827 (Project Summary), 1813 (Primary HTS)]; assay type: functional
[9] = alpha-synuclein stem-loop luciferase translation blockers – H4 neuroglioma cells, luminescence, confirmation (AID 1988); assay type: functional, cell-based
[10] = luciferase reporter signal suppression in cells – H4 neuroglioma cells, luminescence, dose response (AID 1990); assay type: functional, cell-based
[11] = target: T3, Corticotropin-releasing factor receptor 2/Corticotropin-releasing factor-binding protein (Homo sapiens, UniProt P24387+Q13324); test: activators of CRF receptor 2 with binding protein – uHTS hits, confirmation (AID 602473); assay type: functional; settings: read-out: EC50_Mean
T3 sequence (Q13324 whole entry): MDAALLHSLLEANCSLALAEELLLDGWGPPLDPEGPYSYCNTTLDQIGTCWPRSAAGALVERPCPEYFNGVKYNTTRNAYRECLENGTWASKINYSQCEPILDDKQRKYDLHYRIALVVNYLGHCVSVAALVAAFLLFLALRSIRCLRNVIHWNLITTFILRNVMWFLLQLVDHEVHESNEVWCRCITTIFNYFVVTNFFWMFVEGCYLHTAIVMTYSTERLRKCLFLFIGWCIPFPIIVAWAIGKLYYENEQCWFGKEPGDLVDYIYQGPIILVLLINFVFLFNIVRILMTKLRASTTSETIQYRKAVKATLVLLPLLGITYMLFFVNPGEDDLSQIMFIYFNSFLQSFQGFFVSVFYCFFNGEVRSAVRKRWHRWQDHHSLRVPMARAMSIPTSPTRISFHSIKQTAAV
T3 sequence (P24387 whole entry): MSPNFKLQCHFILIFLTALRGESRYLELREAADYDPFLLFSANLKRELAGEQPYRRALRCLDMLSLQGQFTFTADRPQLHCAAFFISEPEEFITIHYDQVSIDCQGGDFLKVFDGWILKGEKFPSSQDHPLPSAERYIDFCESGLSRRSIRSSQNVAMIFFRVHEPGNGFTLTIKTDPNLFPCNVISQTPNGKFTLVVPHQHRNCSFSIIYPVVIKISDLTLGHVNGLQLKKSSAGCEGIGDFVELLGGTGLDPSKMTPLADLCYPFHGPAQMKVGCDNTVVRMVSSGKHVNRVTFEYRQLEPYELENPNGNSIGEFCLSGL

H9c2 = test: cells; assay type: functional, cell-based; settings: Rattus norvegicus, H9c2, Myocardium
Cytochrome P450 1A2 = target: T4, Cytochrome P450 1A2 (Homo sapiens, UniProt P05177);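 further: PubChem cytochrome P450 panel assay, CYP1A2 panel member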
T4 sequence (P05177 whole entry): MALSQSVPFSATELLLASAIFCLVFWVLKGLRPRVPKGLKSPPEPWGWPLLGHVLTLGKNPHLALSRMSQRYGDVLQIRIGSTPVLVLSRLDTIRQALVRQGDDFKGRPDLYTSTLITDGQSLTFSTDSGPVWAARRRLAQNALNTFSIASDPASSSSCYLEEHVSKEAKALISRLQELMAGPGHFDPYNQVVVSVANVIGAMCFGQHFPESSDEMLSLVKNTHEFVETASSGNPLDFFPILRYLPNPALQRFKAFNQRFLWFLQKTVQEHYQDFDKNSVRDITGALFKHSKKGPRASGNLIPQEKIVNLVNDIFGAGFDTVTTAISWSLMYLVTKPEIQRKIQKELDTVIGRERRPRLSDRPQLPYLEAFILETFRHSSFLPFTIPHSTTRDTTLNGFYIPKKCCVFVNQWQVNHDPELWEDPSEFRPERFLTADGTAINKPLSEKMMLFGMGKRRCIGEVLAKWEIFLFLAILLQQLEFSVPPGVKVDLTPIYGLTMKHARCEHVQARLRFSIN
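Wherever IC50 is given: confirmatory concentration-response retest of ultra-high-throughput screening hits for modulation of myocardial damage; cell death induced by hydrogen peroxide oxidative stress; compound pretreatment for 60 min then peroxide exposure for 2 h; potency is for protecting the cells against peroxide damage rather than for killing them.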

## N#Cc1c(N2CCCCC2)nc(N2CCCCC2)c2c1CCN(Cc1ccccc1)C2
[1]
  EC50: > 30 µM (not active)
INS1
  AC50: 12.7 µM (active)
[2]
  EC50: 0.505 µM (active)

## CC(C)n1c(=O)c2c(=O)cc(O)oc2c2ccccc21
Streptococcus
  EC50: > 150 µM (not active)
Cytochrome P450 3A4
  AC50: 2.51 µM (inconclusive)
Streptokinase A
  EC50: > 150 µM (not active)
[3]
  EC50: 27.8 µM (active)
Cytochrome P450 2C19
  AC50: 10 µM (inconclusive)

## COc1ccc(CNc2nc(-c3ccc(C(=O)N(C)C)cc3)nc3ccccc23)c(OC)c1
Cytochrome P450 2C9
  AC50: 1 µM (inconclusive)
Cytochrome P450 3A4
  AC50: 3.98 µM (inconclusive)

## Cc1nc(NCCc2ccc(S(N)(=O)=O)cc2)c2c(C)c(C)sc2n1
INS1
  AC50: 5.52 µM (active)

## Oc1c(Cl)c(Cl)c(Cl)c(Cl)c1Cl [PENTACHLOROPHENOL]
[4]
  EC50: 0.657 µM (active)
[5]
  EC50: 75.3 µM (inconclusive)

## O=C1C2C3C=CC([C@@H]2C(=O)N1C1CCCCC1)[C@H]1C(=O)N(C2CCCCC2)C(=O)C31 (stereo partly drawn)
Cytochrome P450 2C9
  AC50: 6.31 µM (inconclusive)
Cytochrome P450 3A4
  AC50: 3.55 µM (inconclusive)
Cytochrome P450 2C19
  AC50: 17.8 µM (inconclusive)

## COc1cccc(CNC(=O)c2cc3c(c(-c4cccc(-c5ccncc5)c4)n2)[C@H](CCO)N([S@@+]([O-])C(C)(C)C)C3)c1
[6]
  AC50: 4.29 µM (active)

## CC(=O)NC/C(C)=N\Nc1ccc([N+](=O)[O-])cc1
[5]
  EC50: 33.9 µM (active)

## CC1(C)CC(=O)C(CCC(=O)c2ccccc2)C(C)(C)N1 (stereo not drawn)
Cytochrome P450 3A4
  AC50: 12.6 µM (inconclusive)
[7]
  EC50: > 195 µM (not active)
Cytochrome P450 2C19
  AC50: 28.2 µM (inconclusive)

## CN(C)c1oc(-c2ccccc2Cl)nc1C#N
[8]
  EC50: 19.6 µM (active)
[9]
  EC50: 33.3 µM (active)
[10]
  EC50: > 120 µM (not active)

## CC(=O)Nc1cccc(NC(=O)Nc2cccc(F)c2)c1
[4]
  EC50: 3.22 µM (active)
[5]
  EC50: > 150 µM (inactive)

## Cc1ccc(NC(=O)c2cc(S(=O)(=O)NCCC3=CCCCC3)ccc2F)cc1
INS1
  AC50: 2.96 µM (active)

## NNC(=O)c1cc(-c2cccs2)nc2ccccc12
[4]
  EC50: > 38 µM (not active)
[5]
  EC50: > 150 µM (inactive)

## CCCn1c(=O)c2[nH]c(-c3ccccc3)nc2n(CCC)c1=O
Cytochrome P450 2C9
  AC50: 1.58 µM (inconclusive)
Cytochrome P450 3A4
  AC50: 2.51 µM (inconclusive)
Cytochrome P450 2C19
  AC50: 10 µM (inconclusive)

## O=C(NCc1cccnc1)C(=O)Nc1nc(C23CC4CC(CC(C4)C2)C3)cs1
INS1
  AC50: 35.3 µM (active)

## CCOC(=O)N1CCN(C(=O)c2cnc3ccc(S(=O)(=O)N(C)c4cccc(C)c4)cc3c2O)CC1
[11]
  EC50: 3.84 µM (active)

## Cc1ccsc1C(=O)OCC(=O)Nc1sccc1C(N)=O
[4]
  EC50: 5.44 µM (active)
[5]
  EC50: > 150 µM (inactive)

## CCOC(=O)c1s/c(=N\C(=O)c2ccco2)n(C)c1C
[4]
  EC50: 9.57 µM (active)
[5]
  EC50: > 150 µM (inactive)

## COc1ccc(CC(=O)N/N=C(\C)c2ccccn2)cc1
[8]
  EC50: 9.61 µM (active)
[9]
  EC50: 9.41 µM (active)
H9c2
  IC50: > 79 µM (inactive)
[10]
  EC50: 10.9 µM (active)

## Cc1nnsc1-c1onc(C)c1C(=O)Nc1cc(Cl)cc(Cl)c1
INS1
  AC50: 12.8 µM (active)

## CCOc1cc(CNc2ccc3c(c2)OCCO3)cc(Br)c1OC
[8]
  EC50: 10.7 µM (active)
[10]
  EC50: > 60 µM (inconclusive)

## CN(C)c1ccc(C(c2ccc(N(C)C)cc2)c2ccc([N+](=O)[O-])cc2)cc1
Cytochrome P450 3A4
  AC50: 2 µM (inconclusive)
Cytochrome P450 1A2
  AC50: 3.16 µM (inconclusive)

## COc1ccc(-c2oc3ncn(CCN4CCOCC4)c(=N)c3c2-c2ccc(OC)cc2)cc1
[8]
  EC50: 19.6 µM (active)
[9]
  EC50: 14.5 µM (active)
[10]
  EC50: 8.99 µM (active)

## CCCCSc1nc(C)cc(C)c1S(=O)(=O)c1ccccc1C
Cytochrome P450 2C9
  AC50: 10 µM (inconclusive)
Cytochrome P450 3A4
  AC50: 28.2 µM (inconclusive)

## CC(C)[C@@H](C(=O)N1CCCC1)N1C(=O)N2CCc3c([nH]c4ccccc34)[C@@]2(C)C1=O
[8]
  EC50: > 120 µM (not active)
[9]
  EC50: > 120 µM (not active)
[10]
  EC50: > 120 µM (not active)

## COc1ccc(CNC(=O)c2coc(=O)c3ccccc23)c(OC)c1
[8]
  EC50: > 120 µM (not active)
[9]
  EC50: > 120 µM (not active)
[10]
  EC50: > 120 µM (not active)

## CCN(CC)c1ccc(/C=N/NC(=S)NCc2ccccc2)c(O)c1
Streptococcus
  EC50: > 150 µM (not active)
Streptokinase A
  EC50: > 150 µM (not active)
INS1
  AC50: 0.712 µM (active)
[3]
  EC50: 49.2 µM (active)

## Brc1ccc(/C=C/C=N/Nc2nc3ccccc3s2)cc1
Cytochrome P450 2C9
  AC50: 7.08 µM (inconclusive)
[5]
  EC50: 89.4 µM (inconclusive)

## CCS(=O)(=O)N1CCCCN2[C@H](CO)[C@H](c3ccc(-c4cccc(C#N)c4)cc3)[C@H]2C1
[6]
  AC50: 7.45 µM (active)

## C=CCSc1nnc(C)c(/C=C/Nc2ccc(Cl)cc2)n1
[11]
  EC50: 4.77 µM (active)

## C[C@H](CO)N1C[C@H](C)[C@H](CN(C)C(=O)NC2CCCCC2)OCc2ccccc2-c2c(n(C)c3ccccc23)C1=O
[6]
  AC50: 5.57 µM (active)

## Cc1noc(C)c1S(=O)(=O)N(C)C[C@H]1OCc2ccccc2-c2c(n(C)c3ccccc23)C(=O)N([C@@H](C)CO)C[C@H]1C
[6]
  AC50: 4.65 µM (active)
